Assay results published in patent US12310365B2 (priority 2009, dated 2025).
Structures can show the parent of a compound that is named as a salt. Where two headings read alike, the source gives them in different places.

How the values were obtained:
Assay type in all cases: in vivo
[1] = tested on: Botrytis cinerea (Diethofencarb-resistant strain); test: Tomato gray mold preventive test (Diethofencarb-resistant strain)
[2] = tested on: Pseudoperonospora cubensis; test: Cucumber downy mildew preventive test; details: for pest or weed control at 20 ppm: treatment concentration 20 ppm
[3] = tested on: Pseudoperonospora cubensis; test: Cucumber downy mildew curative test; details: single ingredient; for pest or weed control at 20 ppm: treatment concentration 20 ppm
Sphaerotheca fuliginea [4] = test: Cucumber powdery mildew preventive test; details: Podosphaera fuliginea, topical, 168 h; for pest or weed control at 10 ppm: treatment concentration 10 ppm; for pest or weed control at 20 ppm: treatment concentration 20 ppm
Sphaerotheca fuliginea [5] = test: Cucumber powdery mildew curative test; details: Podosphaera fuliginea, topical, 168 h; for pest or weed control at 10 ppm: treatment concentration 10 ppm; for pest or weed control at 20 ppm: treatment concentration 20 ppm
Phytophthora infestans [6] = test: whole plant or invertebrate; details: in Solanum lycopersicum, topical, 168 h, read-out: Control value
Phytophthora infestans [7] = test: whole plant or invertebrate; details: in Solanum lycopersicum, topical, 168 h, read-out: Control value; remark: listed apart in the source
Pyricularia oryzae = test: whole plant or invertebrate; details: topical, 168 h, read-out: Control value
[8] = Botrytis cinerea, topical, 48 h, read-out: Control value
[9] = treatment concentration 7.5 ppm
[10] = Pseudoperonospora cubensis, topical, 168 h, treatment concentration 10 ppm
[11] = treatment concentration 1.7 ppm
[12] = Pseudoperonospora cubensis, topical, 168 h
[13] = Pseudoperonospora cubensis, topical, 168 h, treatment concentration 40 ppm
[14] = treatment concentration 55.3 ppm
[15] = Pseudoperonospora cubensis, topical, 168 h, treatment concentration 160 ppm
[16] = Pseudoperonospora cubensis, topical, 168 h, treatment concentration 9.4 ppm
[17] = treatment concentration 160 ppm
[18] = treatment concentration 4.4 ppm

CC12CC1(C)C(=O)N(c1cc(Cl)cc(Cl)c1)C2=O (stereo not shown) [Procymidone]
pest or weed control at 50 ppm [1, 8]: 17%

CCNc1nc(CC)c(C(=O)NC(C#N)c2cccs2)s1 (stereo not shown) [Ethaboxam]
Control value ([2]; treatment concentration 10 ppm): 20
Control value ([3]; treatment concentration 10 ppm): 67

CC1(C(=O)Nc2ccc(O)c(Cl)c2Cl)CCCCC1 [Fenhexamid]
pest or weed control at 50 ppm [1, 8]: 50%

Mancozeb
Control value [2, 9]: 60
Control value [3, 9]: 67

CC1(C)N=C(c2cnc3ccccc3c2)c2cccc(F)c2C1(C)C [Compound A, 3-(5-fluoro-3,3,4,4-tetramethyl-3,4-dihydroisoquinolin-1-yl)quinoline]
pest or weed control at 10 ppm [1, 8]: 83%
pest or weed control at 10 ppm (Sphaerotheca fuliginea [4]): 50%
pest or weed control at 10 ppm (Sphaerotheca fuliginea [5]): 67%
pest or weed control at 10 ppm (Phytophthora infestans [6]): 0%
pest or weed control at 10 ppm (Phytophthora infestans [7]): 0%
pest or weed control at 10 ppm [2, 10]: 20%
pest or weed control at 10 ppm [3, 10]: 17%

COCC(=O)N(c1c(C)cccc1C)[C@H](C)C(=O)OC [Metalaxyl M]
Control value ([2]; treatment concentration 10 ppm): 60
Control value ([3]; treatment concentration 10 ppm): 83

CC(C)NC(=O)N1CC(=O)N(c2cc(Cl)cc(Cl)c2)C1=O [Iprodione]
pest or weed control at 50 ppm [1, 8]: 67%

O=C(Cc1ccccc1)N/C(=N\OCC1CC1)c1c(C(F)(F)F)ccc(F)c1F [Cyflufenamid]
pest or weed control at 1.7 ppm (Sphaerotheca fuliginea [4]; [11]): 33%
pest or weed control at 1.7 ppm (Sphaerotheca fuliginea [5]; [11]): 67%

Cc1ccc(C(=O)NC[C@@H](NC(=O)OC(C)C)C(F)(F)F)cc1 [Compound 2009, Isopropyl ((1R)-2,2,2-trifluoro-1-{[(4-methylbenzoyl)amino]methyl}ethyl)-carbamate]
pest or weed control at 5 ppm (Pyricularia oryzae): 67%

Maneb
Control value ([1]; treatment concentration 177.5 ppm): 17

Cc1ccc(C(=O)NC[C@H](C)NC(=O)OCC(F)(F)F)cc1 [Compound 2007, 2,2,2-Trifluoroethyl {(1S)-1-methyl-2-[(4-methylbenzoyl)amino]ethyl}-carbamate]
pest or weed control at 5 ppm (Pyricularia oryzae): 67%

CCNC(=O)NC(=O)/C(C#N)=N/OC [Cymoxanil]
pest or weed control at 20 ppm [2, 12]: 60%
pest or weed control at 20 ppm [3, 12]: 67%

Clc1ccc(CSC(Cn2cncn2)=Nc2ccc(Cl)cc2Cl)cc1 [Imibenconazole]
pest or weed control at 15 ppm (Sphaerotheca fuliginea [4]; treatment concentration 15 ppm): 33%
pest or weed control at 15 ppm (Sphaerotheca fuliginea [5]; treatment concentration 15 ppm): 75%

CC(C)(C)C(=O)C(Oc1ccc(Cl)cc1)n1cncn1 (stereo not shown) [Triadimefon]
pest or weed control at 10 ppm (Sphaerotheca fuliginea [4]): 0%
pest or weed control at 10 ppm (Sphaerotheca fuliginea [5]): 67%

Cc1ccc(C(=O)NC[C@@H](NC(=O)OC(C)C)C(C)(C)C)cc1 [Compound 2002, Isopropyl ((1S)-2,2-dimethyl-1-{[(4-methylbenzoyl)amino]methyl}propyl)-carbamate]
pest or weed control at 5 ppm (Pyricularia oryzae): 33%

COC(=O)NC(=S)Nc1ccccc1NC(=S)NC(=O)OC [Thiophanate-methyl]
pest or weed control at 70 ppm [1, 8]: 43%

N#Cc1c(Cl)c(Cl)c(Cl)c(C#N)c1Cl [TPN, Chlorothalonil (TPN)]
pest or weed control at 40 ppm (Phytophthora infestans [6]): 0%
pest or weed control at 40 ppm (Phytophthora infestans [7]): 0%
pest or weed control at 40 ppm [2, 13]: 60%
pest or weed control at 40 ppm [3, 13]: 83%

[Cu+2].[OH-].[OH-] [cupric hydroxide]
Control value [2, 14]: 40
Control value [3, 14]: 50

CC1(C)COC(C)(CCCc2ccc(Cl)cc2)N1C(=O)n1ccnc1.CC1(C)COC(C)(CCCc2ccc(Cl)cc2)N1C(=O)n1ccnc1.O=C(O)/C=C/C(=O)O (stereo not shown) [Oxpoconazole fumarate]
Control value ([1]; treatment concentration 10 ppm): 0

CO/N=C(/C(=O)OC)c1ccccc1COc1ccccc1C [Kresoxim-methyl]
pest or weed control at 20 ppm (Sphaerotheca fuliginea [4]): 17%
pest or weed control at 20 ppm (Sphaerotheca fuliginea [5]): 67%

CCCOC(=O)NCCCN(C)C [Propamocarb hydrochloride]
pest or weed control at 160 ppm (Phytophthora infestans [6]): 0%
pest or weed control at 160 ppm (Phytophthora infestans [7]): 0%
pest or weed control at 160 ppm [2, 15]: 20%
pest or weed control at 160 ppm [3, 15]: 0%

Cc1ccc(C(=O)NC[C@@H](NC(=O)OCC(F)(F)F)C(C)(C)C)cc1 [Compound 2005, 2,2,2-Trifluoroethyl ((1S)-2,2-dimethyl-1-{[(4-methylbenzoyl)amino]methyl}-propyl)carbamate]
pest or weed control at 5 ppm (Pyricularia oryzae): 67%

Cc1ccc(C(=O)NC[C@@H](NC(=O)OCc2ccccc2)C(C)C)cc1 [Compound 2008, Benzyl ((1S)-2-methyl-1-{[(4-methylbenzoyl)amino]methyl}propyl)carbamate]
pest or weed control at 5 ppm (Pyricularia oryzae): 33%

COCC(=O)N(c1c(C)cccc1C)C(C)C(=O)OC (stereo not shown) [Metalaxyl]
pest or weed control at 10 ppm [2, 10]: 60%
pest or weed control at 10 ppm [3, 10]: 92%

CC(C)CC(C)c1sccc1NC(=O)c1cn(C)nc1C(F)(F)F (stereo not shown) [Penthiopyrad]
pest or weed control at 10 ppm [1, 8]: 33%

CCCOC/C(=N\c1ccc(Cl)cc1C(F)(F)F)n1ccnc1 [Triflumizole]
pest or weed control at 6 ppm (Sphaerotheca fuliginea [4]; treatment concentration 6 ppm): 33%
pest or weed control at 6 ppm (Sphaerotheca fuliginea [5]; treatment concentration 6 ppm): 67%

CC(C)[C@@H](CNC(=O)c1cc2ccccc2o1)NC(=O)OCC(F)(F)F [Compound 2006, 2,2,2-Trifluoroethyl ((1S)-1-{[(1-benzofuran-2-ylcarbonyl)amino]methyl}-2-methylpropyl)carbamate]
pest or weed control at 5 ppm (Pyricularia oryzae): 67%

N#Cc1c[nH]cc1-c1cccc2c1OC(F)(F)O2 [Fludioxonil]
pest or weed control at 20 ppm [1, 8]: 67%

Cc1ccc(-c2c(Cl)nc(C#N)n2S(=O)(=O)N(C)C)cc1 [Cyazofamid]
pest or weed control at 9.4 ppm [2, 16]: 40%
pest or weed control at 9.4 ppm [3, 16]: 67%

CO/C=C(/C(=O)OC)c1ccccc1Oc1cc(Oc2ccccc2C#N)ncn1 [Azoxystrobin]
Control value ([2]; treatment concentration 8 ppm): 60
Control value ([3]; treatment concentration 8 ppm): 92

CCCCC(O)(Cn1cncn1)c1ccc(Cl)cc1Cl (stereo not shown) [Hexaconazole]
pest or weed control at 2 ppm (Sphaerotheca fuliginea [4]; treatment concentration 2 ppm): 17%
pest or weed control at 2 ppm (Sphaerotheca fuliginea [5]; treatment concentration 2 ppm): 75%

Cc1ccc(C(=O)NC[C@@H](NC(=O)OCC(F)(F)F)C(C)C)cc1 [Compound 2004, 2,2,2-Trifluoroethyl ((1S)-2-methyl-1-{[(4-methylbenzoyl)amino]methyl}-propyl)carbamate]
pest or weed control at 5 ppm (Pyricularia oryzae): 67%

C[Si](C)(C)CC(O)(Cn1cncn1)c1ccc(F)cc1 (stereo not shown) [Simeconazole]
pest or weed control at 10 ppm [1, 8]: 33%
pest or weed control at 10 ppm (Sphaerotheca fuliginea [4]): 0%
pest or weed control at 10 ppm (Sphaerotheca fuliginea [5]): 33%

O=C1C2CC=CCC2C(=O)N1SC(Cl)(Cl)Cl (stereo not shown) [Captan]
pest or weed control at 133.3 ppm [1, 8]: 33%

CC1(C)N=C(c2cnc3ccccc3c2)c2cccc(F)c2C1(F)F [C, 3-(4,4,5-trifluoro-3,3-dimethyl-3,4-dihydroisoquinolin-1-yl)quinoline]
pest or weed control at 10 ppm [1, 8]: 80%
pest or weed control at 10 ppm (Sphaerotheca fuliginea [4]): 65%
pest or weed control at 10 ppm (Sphaerotheca fuliginea [5]): 73%
pest or weed control at 10 ppm (Phytophthora infestans [6]): 0%
pest or weed control at 10 ppm (Phytophthora infestans [7]): 0%
pest or weed control at 10 ppm [2, 10]: 33%
pest or weed control at 10 ppm [3, 10]: 33%

CC(C)OC(=O)N[C@H](C(=O)N[C@H](C)c1nc2ccc(F)cc2s1)C(C)C [Benthiavalicarb-isopropyl]
pest or weed control at 10 ppm [2, 10]: 40%
pest or weed control at 10 ppm [3, 10]: 67%

Fosetyl-aluminium
Control value [2, 17]: 60
Control value [3, 17]: 67

OC(c1ccc(Cl)cc1)(c1cncnc1)c1ccccc1Cl (stereo not shown) [Fenarimol]
pest or weed control at 4 ppm (Sphaerotheca fuliginea [4]; treatment concentration 4 ppm): 67%
pest or weed control at 4 ppm (Sphaerotheca fuliginea [5]; treatment concentration 4 ppm): 78%

C[C@@]1(c2ccc(Oc3ccccc3)cc2)OC(=O)N(Nc2ccccc2)C1=O (racemic) [Famoxadone]
pest or weed control at 10 ppm [2, 10]: 0%
pest or weed control at 10 ppm [3, 10]: 92%

Iminoctadine trialbesilate
Control value ([1]; treatment concentration 40 ppm): 67

CC#Cc1cc(C)nc(Nc2ccccc2)n1 [Mepanipyrim]
pest or weed control at 20 ppm (Sphaerotheca fuliginea [4]): 0%
pest or weed control at 20 ppm (Sphaerotheca fuliginea [5]): 75%

CC(C)OC(=O)N[C@H](CNC(=O)c1cc2ccccc2o1)C(C)C [Compound 2003, Isopropyl ((1S)-1-{[(1-benzofuran-2-ylcarbonyl)amino]methyl}-2-methyl-propyl)carbamate]
pest or weed control at 5 ppm (Pyricularia oryzae): 50%

O=[N+]([O-])c1cc(C(F)(F)F)c(Cl)c([N+](=O)[O-])c1Nc1ncc(C(F)(F)F)cc1Cl [Fluazinam]
pest or weed control at 20 ppm [1, 8]: 0%

CCOc1ccc(NC(=O)OC(C)C)cc1OCC [Diethofencarb]
pest or weed control at 12.5 ppm [1, 8]: 0%

N#CC(CCc1ccc(Cl)cc1)(Cn1cncn1)c1ccccc1 (stereo not shown) [Fenbuconazole]
pest or weed control at 4.4 ppm (Sphaerotheca fuliginea [4]; [18]): 27%
pest or weed control at 4.4 ppm (Sphaerotheca fuliginea [5]; [18]): 75%

Cc1ccc(C(=O)NC[C@@H](NC(=O)OC(C)C)C(C)C)cc1 [Compound 2001, Isopropyl ((1S)-2-methyl-1-{[(4-methylbenzoyl)amino]methyl}propyl)-carbamate]
pest or weed control at 5 ppm (Pyricularia oryzae): 33%

CC(C)(C)C(O)(CCc1ccc(Cl)cc1)Cn1cncn1 (stereo not shown) [Tebuconazole]
pest or weed control at 20 ppm (Sphaerotheca fuliginea [4]): 33%
pest or weed control at 20 ppm (Sphaerotheca fuliginea [5]): 67%

O=C(Nc1ccccc1-c1ccc(Cl)cc1)c1cccnc1Cl [Boscalid]
pest or weed control at 50 ppm [1, 8]: 17%

COc1ccc(C(=CC(=O)N2CCOCC2)c2ccc(Cl)cc2)cc1OC [Dimethomorph]
pest or weed control at 20 ppm [2, 12]: 60%
pest or weed control at 20 ppm [3, 12]: 50%
